Reference: ChEMBL document CHEMBL1201862, “PubChem BioAssay data set” (2004)
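Step 1: Grow cells in 96-well plates. Step 2: Expose to compound for 48 hours at 5 concentrations. Step 3: Interpolate endpoints linearly; if unreached, use highest concentration. GI50 = concentration required for 50% inhibition of growth.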 The source made the active and inactive calls. Rule as the data show it: active = GI50 up to about 1.1 µM and inactive = higher.

What was measured:
Experiment in all cases: NCI anticancer screen, dose series, 48 h
T47D = system: T47D
RPMI-8226 = system: RPMI-8226
NCI-H23 = system: NCI-H23
MDA-MB-231 = system: MDA-MB-231
EKVX = system: EKVX
MCF7 = system: MCF7
OVCAR-4 = system: OVCAR-4
HCT-116 = system: HCT-116
UO-31 = system: UO-31
LOX IMVI = system: LOX IMVI
HOP-62 = system: HOP-62
DU-145 = system: DU-145
SK-MEL-5 = system: SK-MEL-5
HL-60 = system: HL-60
KM12 = system: KM12
SNB-19 = system: SNB-19
SF-295 = system: SF-295
RXF 393 = system: RXF 393
MDA-N = system: MDA-N
CCRF-CEM = system: CCRF-CEM

Structure (SMILES)	GI50 (T47D)	GI50 (RPMI-8226)	GI50 (NCI-H23)	GI50 (MDA-MB-231)	GI50 (EKVX)	GI50 (MCF7)	GI50 (OVCAR-4)	GI50 (HCT-116)	GI50 (UO-31)	GI50 (LOX IMVI)	GI50 (HOP-62)	GI50 (DU-145)	GI50 (SK-MEL-5)	GI50 (HL-60)	GI50 (KM12)	GI50 (SNB-19)	GI50 (SF-295)	GI50 (RXF 393)	GI50 (MDA-N)	GI50 (CCRF-CEM)
N#CC(Cl)CS(=O)(=O)c1ccccc1 (stereo not given)	2.85 µM (inactive)	3.32 µM (inactive)	16.3 µM (inactive)	19.7 µM (inactive)	18.6 µM (inactive)	10.2 µM (inactive)	2.03 µM (inactive)	4.34 µM (inactive)	19.1 µM (inactive)	7.14 µM (inactive)	> 44.6 µM (inactive)	17.5 µM (inactive)	15.8 µM (inactive)	1.53 µM (inactive)	17.5 µM (inactive)	18.9 µM (inactive)	18.7 µM (inactive)	2.35 µM (inactive)	8.09 µM (inactive)	0.628 µM (active)
CCOC(=O)/C=C(/C(=O)OCC)n1cc(C)c(=O)[nH]c1=O	3.69 µM (inactive)	2.47 µM (inactive)	5.56 µM (inactive)	4.51 µM (inactive)	3.33 µM (inactive)	3.89 µM (inactive)	4.93 µM (inactive)	2.43 µM (inactive)	11.2 µM (inactive)	2.19 µM (inactive)	18.9 µM (inactive)	16.1 µM (inactive)	8.81 µM (inactive)	1.67 µM (inactive)	14.2 µM (inactive)	17.3 µM (inactive)	17.3 µM (inactive)	1.95 µM (inactive)	5.83 µM (inactive)	1.37 µM (inactive)
c1ccc(CCN2CCOCC2)nc1	> 100 µM (inactive)	> 100 µM (inactive)	> 100 µM (inactive)	> 100 µM (inactive)	> 100 µM (inactive)	> 100 µM (inactive)	> 100 µM (inactive)	> 100 µM (inactive)	> 100 µM (inactive)	> 100 µM (inactive)	> 100 µM (inactive)	> 100 µM (inactive)	> 100 µM (inactive)	> 100 µM (inactive)	> 100 µM (inactive)	> 100 µM (inactive)	> 100 µM (inactive)	> 100 µM (inactive)	> 100 µM (inactive)	> 100 µM (inactive)
OC(COc1ccccc1)CN1CCCCC1 (stereo not given)	> 100 µM (inactive)	> 100 µM (inactive)	> 100 µM (inactive)	> 100 µM (inactive)	63.4 µM (inactive)	> 100 µM (inactive)	> 100 µM (inactive)	> 100 µM (inactive)	> 100 µM (inactive)	> 100 µM (inactive)	> 100 µM (inactive)	> 100 µM (inactive)	> 100 µM (inactive)	> 100 µM (inactive)	> 100 µM (inactive)	> 100 µM (inactive)	> 100 µM (inactive)	> 100 µM (inactive)	> 100 µM (inactive)	> 100 µM (inactive)
